From the NIST ThermoML archive (doi:10.1016/j.fluid.2005.07.017)
± gives the expanded uncertainty stated by the source.

Assay: xn = mol fraction of the nth substance listed
Conditions: Liquid, Vibrating tube method

## c1ccsc1 [thiophene] + O=C=O
293.15 K, 101 kPa, x2 = 0
  mass density: 1063.59 ± 0.44 kg/m3
303.15 K, 101 kPa, x2 = 0
  mass density: 1051.55 ± 0.44 kg/m3
313.06 K, 7053 kPa, x2 = 0.5661
  mass density: 983.33 ± 0.43 kg/m3
313.06 K, 8092 kPa, x2 = 0.5661
  mass density: 985.63 ± 0.43 kg/m3
313.06 K, 8911 kPa, x2 = 0.5661
  mass density: 987.46 ± 0.43 kg/m3
313.06 K, 10009 kPa, x2 = 0.5661
  mass density: 989.71 ± 0.43 kg/m3
313.06 K, 11009 kPa, x2 = 0.5661
  mass density: 991.78 ± 0.43 kg/m3
313.06 K, 11980 kPa, x2 = 0.5661
  mass density: 993.76 ± 0.43 kg/m3
313.06 K, 13003 kPa, x2 = 0.5661
  mass density: 995.81 ± 0.43 kg/m3
313.06 K, 13999 kPa, x2 = 0.5661
  mass density: 997.77 ± 0.43 kg/m3
313.06 K, 15006 kPa, x2 = 0.5661
  mass density: 999.68 ± 0.43 kg/m3
313.06 K, 15996 kPa, x2 = 0.5661
  mass density: 1001.53 ± 0.43 kg/m3
313.06 K, 17015 kPa, x2 = 0.5661
  mass density: 1003.44 ± 0.43 kg/m3
313.06 K, 17998 kPa, x2 = 0.5661
  mass density: 1005.25 ± 0.43 kg/m3
313.06 K, 19007 kPa, x2 = 0.5661
  mass density: 1007.09 ± 0.43 kg/m3
313.07 K, 4997 kPa, x2 = 0.199
  mass density: 1030.05 ± 0.43 kg/m3
313.07 K, 6011 kPa, x2 = 0.199
  mass density: 1031.17 ± 0.43 kg/m3
313.07 K, 7011 kPa, x2 = 0.199
  mass density: 1032.32 ± 0.43 kg/m3
313.07 K, 8006 kPa, x2 = 0.199
  mass density: 1033.43 ± 0.43 kg/m3
313.07 K, 9032 kPa, x2 = 0.199
  mass density: 1034.56 ± 0.43 kg/m3
313.07 K, 10022 kPa, x2 = 0.199
  mass density: 1035.65 ± 0.43 kg/m3
313.07 K, 11026 kPa, x2 = 0.199
  mass density: 1036.74 ± 0.43 kg/m3
313.07 K, 12001 kPa, x2 = 0.199
  mass density: 1037.83 ± 0.43 kg/m3
313.07 K, 13018 kPa, x2 = 0.199
  mass density: 1038.9 ± 0.43 kg/m3
313.07 K, 13993 kPa, x2 = 0.199
  mass density: 1039.92 ± 0.43 kg/m3
313.07 K, 14989 kPa, x2 = 0.199
  mass density: 1040.95 ± 0.43 kg/m3
313.07 K, 16012 kPa, x2 = 0.199
  mass density: 1042.03 ± 0.43 kg/m3
313.07 K, 17005 kPa, x2 = 0.199
  mass density: 1043.03 ± 0.43 kg/m3
313.07 K, 18003 kPa, x2 = 0.199
  mass density: 1044.05 ± 0.43 kg/m3
313.07 K, 19065 kPa, x2 = 0.199
  mass density: 1045.15 ± 0.43 kg/m3
313.09 K, 1029 kPa, x2 = 0
  mass density: 1040.96 ± 0.44 kg/m3
313.09 K, 1969 kPa, x2 = 0
  mass density: 1041.84 ± 0.44 kg/m3
313.09 K, 2970 kPa, x2 = 0
  mass density: 1042.78 ± 0.44 kg/m3
313.09 K, 3987 kPa, x2 = 0
  mass density: 1043.71 ± 0.44 kg/m3
313.09 K, 5055 kPa, x2 = 0
  mass density: 1044.72 ± 0.44 kg/m3
313.09 K, 5952 kPa, x2 = 0
  mass density: 1045.51 ± 0.44 kg/m3
313.09 K, 6937 kPa, x2 = 0
  mass density: 1046.43 ± 0.44 kg/m3
313.09 K, 8032 kPa, x2 = 0
  mass density: 1047.39 ± 0.44 kg/m3
313.09 K, 9218 kPa, x2 = 0
  mass density: 1048.44 ± 0.44 kg/m3
313.09 K, 10045 kPa, x2 = 0
  mass density: 1049.18 ± 0.44 kg/m3
313.09 K, 11012 kPa, x2 = 0
  mass density: 1050.03 ± 0.44 kg/m3
313.09 K, 12014 kPa, x2 = 0
  mass density: 1050.9 ± 0.44 kg/m3
313.09 K, 12995 kPa, x2 = 0
  mass density: 1051.74 ± 0.44 kg/m3
313.09 K, 13961 kPa, x2 = 0
  mass density: 1052.59 ± 0.44 kg/m3
313.09 K, 14970 kPa, x2 = 0
  mass density: 1053.43 ± 0.44 kg/m3
313.09 K, 15953 kPa, x2 = 0
  mass density: 1054.26 ± 0.44 kg/m3
313.09 K, 17004 kPa, x2 = 0
  mass density: 1055.16 ± 0.44 kg/m3
313.09 K, 18003 kPa, x2 = 0
  mass density: 1055.95 ± 0.44 kg/m3
313.09 K, 18904 kPa, x2 = 0
  mass density: 1056.76 ± 0.44 kg/m3
313.13 K, 9091 kPa, x2 = 0.9217
  mass density: 798.81 ± 0.74 kg/m3
313.13 K, 10071 kPa, x2 = 0.9217
  mass density: 813.05 ± 0.72 kg/m3
313.13 K, 11026 kPa, x2 = 0.9217
  mass density: 824.67 ± 0.67 kg/m3
313.13 K, 12059 kPa, x2 = 0.9217
  mass density: 836.13 ± 0.63 kg/m3
313.13 K, 13037 kPa, x2 = 0.9217
  mass density: 845.52 ± 0.61 kg/m3
313.13 K, 14012 kPa, x2 = 0.9217
  mass density: 854.21 ± 0.59 kg/m3
313.13 K, 15001 kPa, x2 = 0.9217
  mass density: 862.38 ± 0.57 kg/m3
313.13 K, 16014 kPa, x2 = 0.9217
  mass density: 870.06 ± 0.56 kg/m3
313.13 K, 17035 kPa, x2 = 0.9217
  mass density: 877.41 ± 0.55 kg/m3
313.13 K, 18056 kPa, x2 = 0.9217
  mass density: 884.26 ± 0.54 kg/m3
313.13 K, 19024 kPa, x2 = 0.9217
  mass density: 890.25 ± 0.53 kg/m3
313.13 K, 19849 kPa, x2 = 0.9217
  mass density: 895.22 ± 0.52 kg/m3
313.13 K, 20858 kPa, x2 = 0.9217
  mass density: 901.01 ± 0.51 kg/m3
313.13 K, 21968 kPa, x2 = 0.9217
  mass density: 907.04 ± 0.51 kg/m3
313.13 K, 23020 kPa, x2 = 0.9217
  mass density: 912.42 ± 0.5 kg/m3
313.13 K, 24013 kPa, x2 = 0.9217
  mass density: 917.38 ± 0.5 kg/m3
313.13 K, 25004 kPa, x2 = 0.9217
  mass density: 921.98 ± 0.49 kg/m3
313.14 K, 5783 kPa, x2 = 0.3818
  mass density: 1008.02 ± 0.43 kg/m3
313.14 K, 6953 kPa, x2 = 0.3818
  mass density: 1010.44 ± 0.42 kg/m3
313.14 K, 7991 kPa, x2 = 0.6996
  mass density: 974.06 ± 0.43 kg/m3
313.14 K, 8014 kPa, x2 = 0.3818
  mass density: 1012.13 ± 0.42 kg/m3
313.14 K, 9021 kPa, x2 = 0.3818
  mass density: 1013.7 ± 0.42 kg/m3
313.14 K, 9112 kPa, x2 = 0.6996
  mass density: 977.19 ± 0.42 kg/m3
313.14 K, 9872 kPa, x2 = 0.6996
  mass density: 979.01 ± 0.42 kg/m3
313.14 K, 9948 kPa, x2 = 0.3818
  mass density: 1015.07 ± 0.42 kg/m3
313.14 K, 10945 kPa, x2 = 0.3818
  mass density: 1016.6 ± 0.42 kg/m3
313.14 K, 10946 kPa, x2 = 0.6996
  mass density: 981.56 ± 0.42 kg/m3
313.14 K, 11951 kPa, x2 = 0.6996
  mass density: 983.92 ± 0.42 kg/m3
313.14 K, 12015 kPa, x2 = 0.3818
  mass density: 1018.22 ± 0.42 kg/m3
313.14 K, 13025 kPa, x2 = 0.3818
  mass density: 1019.65 ± 0.42 kg/m3
313.14 K, 13033 kPa, x2 = 0.6996
  mass density: 986.45 ± 0.42 kg/m3
313.14 K, 13973 kPa, x2 = 0.3818
  mass density: 1021.04 ± 0.42 kg/m3
313.14 K, 13991 kPa, x2 = 0.6996
  mass density: 988.63 ± 0.42 kg/m3
313.14 K, 14931 kPa, x2 = 0.6996
  mass density: 990.71 ± 0.41 kg/m3
313.14 K, 15006 kPa, x2 = 0.3818
  mass density: 1022.52 ± 0.42 kg/m3
313.14 K, 15988 kPa, x2 = 0.6996
  mass density: 993.02 ± 0.41 kg/m3
313.14 K, 15992 kPa, x2 = 0.3818
  mass density: 1023.89 ± 0.42 kg/m3
313.14 K, 16994 kPa, x2 = 0.6996
  mass density: 995.2 ± 0.41 kg/m3
313.14 K, 17012 kPa, x2 = 0.3818
  mass density: 1025.32 ± 0.42 kg/m3
313.14 K, 18022 kPa, x2 = 0.6996
  mass density: 997.41 ± 0.54 kg/m3
313.14 K, 18039 kPa, x2 = 0.3818
  mass density: 1026.72 ± 0.43 kg/m3
313.14 K, 18908 kPa, x2 = 0.3818
  mass density: 1027.86 ± 0.42 kg/m3
313.15 K, 101 kPa, x2 = 0
  mass density: 1039.32 ± 0.44 kg/m3
322.95 K, 5076 kPa, x2 = 0.199
  mass density: 1016.5 ± 0.43 kg/m3
322.95 K, 6015 kPa, x2 = 0.199
  mass density: 1017.63 ± 0.43 kg/m3
322.95 K, 7042 kPa, x2 = 0.199
  mass density: 1018.88 ± 0.43 kg/m3
322.95 K, 8054 kPa, x2 = 0.199
  mass density: 1020.1 ± 0.43 kg/m3
322.95 K, 9012 kPa, x2 = 0.199
  mass density: 1021.25 ± 0.43 kg/m3
322.95 K, 9975 kPa, x2 = 0.199
  mass density: 1022.38 ± 0.43 kg/m3
322.95 K, 11019 kPa, x2 = 0.199
  mass density: 1023.61 ± 0.43 kg/m3
322.95 K, 12001 kPa, x2 = 0.199
  mass density: 1024.72 ± 0.43 kg/m3
322.95 K, 12978 kPa, x2 = 0.199
  mass density: 1025.86 ± 0.43 kg/m3
322.95 K, 14026 kPa, x2 = 0.199
  mass density: 1027.05 ± 0.43 kg/m3
322.95 K, 15010 kPa, x2 = 0.199
  mass density: 1028.15 ± 0.43 kg/m3
322.95 K, 16019 kPa, x2 = 0.199
  mass density: 1029.28 ± 0.43 kg/m3
322.95 K, 17005 kPa, x2 = 0.199
  mass density: 1030.36 ± 0.43 kg/m3
322.95 K, 18005 kPa, x2 = 0.199
  mass density: 1031.46 ± 0.43 kg/m3
